Data reported in patent publication US20210179598A1, “SELECTIVE JAK2 INHIBITOR AND APPLICATION THEREOF” (EAST CHINA UNIVERSITY OF SCIENCE AND TECHNOLOGY, priority 2018, published 2021).
Like-named read-outs stand apart in the source and are kept apart here.

Legend:
[1] = system: SET 2 (JAK2 V617F) cells; experiment: CCK-8 cell proliferation detection, SET2 cells; format: cell-based; details: Homo sapiens, SET-2; Table 2; CCK-8, 72 hrs
From the text: (§1) WST-8 (chemical name: 2-(2-methoxy-4-nitrophenyl)-3-(4-nitrophenyl)-5-(2,4-disulfo benzene)-2H-tetrazolium monosodium), which is reduced to a highly water-soluble yellow formazan product (Formazan dye) by the dehydrogenase in cells under the action of the electron carrier dimethyl 1-methoxy-5-methylphenazinium sulfate (1-Methoxy PMS). The amount of the produced formazan is proportional to the number of living cells. Therefore, the survival rate of cells can be calculated indirectly by measuring the absorbance at 450 nm. The half inhibition rate of the compound on the proliferation of H3122, SET2, HEL cells can be determined by the CCK-8 method.
(§2) RPIM medium containing 10% FBS was used to culture cells (100 μL per well), and 3500 cells were inoculated into a 96-well plate, and placed in a 37° C., 5% CO2 incubator for 24 h, until 50%-70% of the cell confluence was achieved. Drugs with different concentration gradients were added respectively, and incubated for another 72 hrs. […] And finally the absorption value of each well was measured at 450 nm.
(§3) NOTE: HEL, SET-2, H3122 cells were purchased from ATCC (American type culture collection), Z′-LYTETM kinase assay platform was purchased from Invitrogen, HTRF KinEASETM-TK was purchased from Cisbio, and Cell Counting Kit-8 was purchased from Beyotime.

[2] = system: H3122 cells; experiment: CCK-8 cell proliferation detection, H3122 cells; format: cell-based; details: Homo sapiens, NCI-H3122; Table 2; CCK-8, 72 hrs
From the text: as §1, §2, §3

[3] = target: JAK2 (Homo sapiens, UniProt O60674); experiment: JAK2 kinase activity test at molecular level (Z'-LYTE FRET); format: biochemical
Method: JAK2 can catalyze the transfer of a phosphate group of adenosine triphosphate (ATP) to a polypeptide substrate, and the polypeptide substrate is labeled with two fluorescent groups, coumarin and fluorescein. […] Therefore, the inhibition rates of different compounds can be calculated by measuring the ratio of enzyme-catalyzed substrate phosphorylation percentages.
10 μL reaction system, 2.5 μL test compound, 5 μL kinase/peptide substrate mixture and 2.5 μL ATP solution were added into a 384-well plate, shaken for 30 s, and incubated at room temperature for 1 hour. 5 μL of proteolytic enzyme and 15 μL of the reaction system were added and shaken for 30 s and incubated at room temperature for 1 h. 5 μL of stop reagent was added, and the reaction system with a total volume of 20 μL was shaken for 30 seconds. A microplate reader was used to detect the fluorescence signal. […] The inhibition rates of the compound at 7 concentration gradients were determined, and the IC50 value for each compound was calculated by fitting curve with Origin 8.0.
as §3

[4] = system: HEL (JAK2 V617F) cells; experiment: CCK-8 cell proliferation detection, HEL cells; format: cell-based; details: Homo sapiens, Table 2, CCK-8, 72 hrs
From the text: as §1, §2, §3

[5] = target: ALK (Homo sapiens, UniProt Q9UM73); experiment: ALK kinase IC50 test (HTRF); format: biochemical; details: Table 2
From the text: According to HTRF method, the peptide substrate was labeled with a biotin, which can specifically bind to XL665-labeled streptavidin. When the kinase adds a phosphate group to the polypeptide substrate in the first step, its Eu-labeled specific phosphorylation antibody can recognize and bind to it. In this way, in the second step of detection, a complex of XL665-labeled streptavidin, phosphorylated peptide substrate and Eu-labeled phosphorylation antibody can be formed. Since the distance between XL665 and Eu is short, FRET can be formed. On the other hand, Eu has a relatively long fluorescence half-life and can be applied to time-resolved fluorescence detection.
10 μL of reaction system, 4 μL test compound, 2 μL kinase, 2 μL biotin-labeled substrate and 2 μL ATP, was added into a 384-well plate, shaken for 30 s, and incubated at room temperature for 1 hour. 5 μL of Eu-labeled phosphorylation site-specific antibody and 5 μL of XL665-labeled streptavidin were added. The reaction system was shaken for 30 s, and incubated at room temperature for 1 hour. A microplate reader was used to detect the fluorescence signal. The inhibition rates of the compounds under 8 concentration gradients were determined, and the IC50 value of each compound was calculated by fitting curve with Origin 8.0. […] Each experiment was performed in triplicate.
as §3

[6] = Table 1, read-out: JAK2 kinase activity IC50

Chain of ALK (Q9UM73 19-1620, species assumed): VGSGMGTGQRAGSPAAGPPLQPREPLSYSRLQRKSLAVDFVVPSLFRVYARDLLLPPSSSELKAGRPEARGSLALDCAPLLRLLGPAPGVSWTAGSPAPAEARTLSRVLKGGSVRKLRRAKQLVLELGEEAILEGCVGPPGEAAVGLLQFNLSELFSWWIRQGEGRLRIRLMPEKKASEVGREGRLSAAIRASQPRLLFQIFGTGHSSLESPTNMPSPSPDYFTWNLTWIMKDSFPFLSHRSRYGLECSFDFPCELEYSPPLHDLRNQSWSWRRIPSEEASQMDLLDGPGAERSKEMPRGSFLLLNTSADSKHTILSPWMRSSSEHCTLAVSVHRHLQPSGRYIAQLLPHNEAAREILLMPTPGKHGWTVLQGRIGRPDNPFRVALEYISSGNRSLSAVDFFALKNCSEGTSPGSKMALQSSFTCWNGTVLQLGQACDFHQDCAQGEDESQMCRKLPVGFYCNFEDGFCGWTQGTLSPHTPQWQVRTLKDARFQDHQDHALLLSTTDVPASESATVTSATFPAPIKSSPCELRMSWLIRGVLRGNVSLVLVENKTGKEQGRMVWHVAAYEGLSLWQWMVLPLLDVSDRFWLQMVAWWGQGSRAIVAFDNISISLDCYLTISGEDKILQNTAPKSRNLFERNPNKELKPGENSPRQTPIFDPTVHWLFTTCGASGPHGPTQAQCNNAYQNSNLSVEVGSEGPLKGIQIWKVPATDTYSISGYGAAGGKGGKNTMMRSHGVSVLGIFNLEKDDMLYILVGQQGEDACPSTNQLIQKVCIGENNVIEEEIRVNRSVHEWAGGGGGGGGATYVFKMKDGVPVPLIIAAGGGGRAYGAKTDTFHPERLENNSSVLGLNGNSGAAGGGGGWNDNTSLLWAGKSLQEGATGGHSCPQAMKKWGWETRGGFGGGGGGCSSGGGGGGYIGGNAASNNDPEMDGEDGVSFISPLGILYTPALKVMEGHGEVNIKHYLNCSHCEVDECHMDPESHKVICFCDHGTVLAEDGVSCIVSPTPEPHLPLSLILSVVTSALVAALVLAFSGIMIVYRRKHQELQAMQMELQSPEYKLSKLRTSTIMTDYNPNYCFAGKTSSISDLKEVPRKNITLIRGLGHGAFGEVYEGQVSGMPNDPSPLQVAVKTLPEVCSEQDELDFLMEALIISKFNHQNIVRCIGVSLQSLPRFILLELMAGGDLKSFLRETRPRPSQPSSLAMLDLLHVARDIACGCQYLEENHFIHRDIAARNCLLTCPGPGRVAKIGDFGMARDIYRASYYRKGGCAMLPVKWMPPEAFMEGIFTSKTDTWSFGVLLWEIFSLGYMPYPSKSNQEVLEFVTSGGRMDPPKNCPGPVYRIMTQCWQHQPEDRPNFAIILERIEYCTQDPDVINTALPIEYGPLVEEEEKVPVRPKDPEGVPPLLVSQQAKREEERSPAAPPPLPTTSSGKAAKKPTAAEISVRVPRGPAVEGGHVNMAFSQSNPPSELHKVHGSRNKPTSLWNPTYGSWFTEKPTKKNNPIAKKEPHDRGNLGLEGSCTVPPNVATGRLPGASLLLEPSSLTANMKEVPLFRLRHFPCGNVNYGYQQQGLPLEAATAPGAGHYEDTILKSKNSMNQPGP
Chain of JAK2 (O60674 whole entry): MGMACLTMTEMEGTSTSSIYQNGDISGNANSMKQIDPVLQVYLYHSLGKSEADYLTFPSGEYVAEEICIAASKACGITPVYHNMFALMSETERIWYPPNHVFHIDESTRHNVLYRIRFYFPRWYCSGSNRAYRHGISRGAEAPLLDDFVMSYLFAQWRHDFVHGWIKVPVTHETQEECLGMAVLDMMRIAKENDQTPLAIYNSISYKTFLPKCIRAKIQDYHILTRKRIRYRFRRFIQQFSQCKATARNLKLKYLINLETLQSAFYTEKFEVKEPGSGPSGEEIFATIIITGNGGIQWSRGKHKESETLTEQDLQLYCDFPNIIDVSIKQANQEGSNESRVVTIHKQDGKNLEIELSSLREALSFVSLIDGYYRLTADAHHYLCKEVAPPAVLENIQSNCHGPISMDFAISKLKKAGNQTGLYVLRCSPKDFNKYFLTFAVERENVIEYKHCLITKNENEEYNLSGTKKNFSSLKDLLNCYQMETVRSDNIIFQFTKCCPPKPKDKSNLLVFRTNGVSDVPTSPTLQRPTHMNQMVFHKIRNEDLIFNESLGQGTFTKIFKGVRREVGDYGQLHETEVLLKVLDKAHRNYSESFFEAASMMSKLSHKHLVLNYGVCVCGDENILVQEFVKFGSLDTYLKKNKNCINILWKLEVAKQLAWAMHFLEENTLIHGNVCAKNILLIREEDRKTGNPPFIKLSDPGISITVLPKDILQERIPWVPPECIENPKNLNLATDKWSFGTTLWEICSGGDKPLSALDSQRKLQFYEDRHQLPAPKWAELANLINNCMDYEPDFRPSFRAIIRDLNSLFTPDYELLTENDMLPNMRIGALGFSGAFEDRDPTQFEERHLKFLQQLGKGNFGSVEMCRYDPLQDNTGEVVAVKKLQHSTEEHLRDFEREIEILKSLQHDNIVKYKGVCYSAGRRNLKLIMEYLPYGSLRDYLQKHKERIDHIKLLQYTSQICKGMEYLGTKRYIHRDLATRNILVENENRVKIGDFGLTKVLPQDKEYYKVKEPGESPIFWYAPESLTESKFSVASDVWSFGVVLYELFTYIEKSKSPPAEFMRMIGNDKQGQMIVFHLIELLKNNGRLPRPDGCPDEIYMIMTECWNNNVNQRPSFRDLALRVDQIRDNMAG

Compound	melting point [°C]	IC50 [2] [µM]	IC50 [3, 6] [µM]	IC50 [5] [µM]	IC50 ([3]; Table 2, read-out: JAK2 IC50) [µM]	IC50 [1] [µM]	IC50 [4] [µM]
C[C@@H](Oc1cc(-c2cncc(N3CCNCC3)c2)cnc1N)c1c(Cl)ccc(F)c1Cl [WWQ-1093-23, (R)-5-[1-(2,6-dichloro-3-fluorophenyl)ethoxy]-5′-piperazine-[3,3′-dipyridine]-6-amine]	189.7 to 190.6	1.54 ± 0.034	0.119 ± 0.0082	2.44		2.89	10.4
C[C@@H](Oc1cc(-c2cnn(C3CCNCC3)c2)cnc1N)c1ccccc1 [WWQ-1093-25, 4-[3-(1-phenylpropoxy)-2-aminopyridine]pyrazole-1-piperidine]	194.2 to 195	3.52 ± 0.102	0.215 ± 0.0124	5.43		4.61	13.7
C[C@@H](Oc1cc(-c2cnn(C3CCOCC3)c2)cnc1N)c1c(Cl)ccc(F)c1Cl [WWQ-1093-27]	188.1 to 190.4	7.18 ± 0.838	0.0647 ± 0.0004	0.855		1.68	8.05
COc1ccc(F)cc1C(C)Oc1cc(-c2cnn(C3CCNCC3)c2)cnc1N (centres unmarked) [WWQ-1093-71]	191.6 to 192.3	< 0.5	0.003 ± 0.0001	1.33	0.003 ± 0.0001	0.616	9.97
C[C@@H](Nc1cc(-c2cnn(C3CCNCC3)c2)cnc1N)c1c(Cl)ccc(F)c1Cl [WWQ-1093-73, 4-{3-[1-(2,6-dichloro-3-fluorophenyl)ethylamino]-2-aminopyridine}pyrazole-1-piperidine]	191.5 to 191.7	4.366 ± 0.005	0.126 ± 0.0053	3.45		2.2	13.4
CC(Oc1cc(-c2ccccc2)cnc1N)c1cc(F)ccc1Cl (centres unmarked) [WWQ-1093-75, 3-(1-(2-chloro-5-fluorophenyl)ethoxy)-2-amino-5-phenylpyridine]	199 to 199.8	14.4 ± 4.21	0.461 ± 0.002	> 10	0.461 ± 0.002	33.2	24.5
CC(Oc1cc(-c2cn[nH]c2)cnc1N)c1cc(F)ccc1Cl (centres unmarked) [WWQ-1093-81, 3-(1-(2-chloro-5-fluorophenyl)ethoxy)-2-amino-5-pyrazolepyridine]	183.8 to 184.6	2.55 ± 0.16	0.016 ± 0.0001	0.334	0.016 ± 0.0001	5.55	4.7
CC(Oc1cc(-c2ccccc2)cnc1N)c1c(Cl)ccc(F)c1Cl (centres unmarked) [WWQ-1093-83]	160.4 to 161.4	6.06 ± 0.081		> 10	> 10	11.6	11.3
CC(Oc1cc(-c2ccc(N3CCNCC3)cc2)cnc1N)c1cc(F)ccc1Cl (centres unmarked) [WWQ-1093-85]	191.1 to 193.7	1.14 ± 0.012	0.037 ± 0.003	0.498	0.037 ± 0.003	8.26	35.8
CC(Oc1cc(-c2ccc(C3CCNCC3)cc2)cnc1N)c1cc(F)ccc1Cl (centres unmarked) [WWQ-1093-87]	189.8 to 191	> 10	0.048 ± 0.008	0.545	0.048 ± 0.008	9.7	35.4
CC(Oc1cc(-c2cccc(N3CCNCC3)c2)cnc1N)c1cc(F)ccc1Cl (centres unmarked) [WWQ-1093-89]	190.8 to 191.6	< 0.5	0.027 ± 0.002	0.334	0.027 ± 0.002	2.26	8.43
CC(Oc1cc(-c2cccc(C3CCNCC3)c2)cnc1N)c1cc(F)ccc1Cl (centres unmarked) [WWQ-1093-91]	192.1 to 193.4	0.956	0.035 ± 0.001	1.25	0.035 ± 0.001	2.36	8.77

Further lines, with some results ahead:

melting point [°C]	IC50 [2] [µM]	IC50 [3, 6] [µM]	IC50 [5] [µM]	IC50 ([3]; Table 2, read-out: JAK2 IC50) [µM]	Compound	IC50 [1] [µM]	IC50 [4] [µM]
189.8 to 191.3	4.83 ± 0.082	0.0265 ± 0.0265	0.423		COc1ccc(F)c(Cl)c1C(C)Oc1cc(-c2cnn(C3CCNCC3)c2)cnc1N (centres unmarked) [WWQ-175, 4-{3-[1-(2-chloro-3-fluoro-6-methoxyphenyl)ethoxy]-2-aminopyridine}pyrazol-1-piperidine]	0.916	11.3
158.8 to 159.8	6.32 ± 0.128	3.05 ± 0.204	> 10		C[C@@H](Oc1cc(-c2cccnc2)cnc1N)c1c(Cl)ccc(F)c1Cl [WWQ-189, (R)-5-[1-(2,6-dichloro-3-fluorophenyl)ethoxy]-[3,3′-dipyridine]-6-amine]	11.1	13.2
197.8 to 198.5	1.17 ± 0.093	0.804 ± 0.009	3.44		C[C@@H](Oc1cc(-c2ccc(N3CCNCC3)nc2)cnc1N)c1c(Cl)ccc(F)c1Cl [WWQ-191, (R)-5-[1-(2,6-dichloro-3-fluorophenyl)ethoxy]-6′-piperazin-[3,3′-dipyridine]-6-amine]	3.22	30.1
192.2 to 193.4	20.7 ± 0.394	3.4 ± 0.431	> 10	3.4 ± 0.431	CC(Oc1cc(-c2cnn(C3CCNCC3)c2)cnc1N)C1CCCCC1 (centres unmarked) [WWQ-197, 4-{3-[1-cyclohexaneethoxy]-2-aminopyridine}pyrazol-1-piperidine]	7.02	12.9
	> 100		> 10	1.12 ± 0.014	CC(Oc1cc(-c2nccs2)cnc1N)c1cc(F)ccc1Cl (centres unmarked) [XFL-169]	8.17	15.9
	11.9 ± 0.31		> 10	1.84 ± 0.025	CC(Oc1cc(-c2cn(C)cn2)cnc1N)c1cc(F)ccc1Cl (centres unmarked) [XFL-171]	4.47	13.5
	> 100		7.78	0.931 ± 0.032	CC(Oc1cc(-n2cccn2)cnc1N)c1cc(F)ccc1Cl (centres unmarked) [XFL-179]	> 50	> 50
